Reference: patent US8986733B2, “Materials and methods for nerve repair” (University of Florida Research Foundation, Inc., priority 2001, dated 2015)

What was measured:
[1] = system: rat sciatic nerve; experiment: Human-to-rat acellular nerve xenograft model, GAP-43 axon scoring; format: in vivo; conditions: 8-day acellular human nerve xenografts in rat
Source text: Human nerve fascicles (of similar diameter to the rat sciatic nerve) were grafted into a gap made in the rat sciatic nerve. Serial sections of the 8-day interpositional nerve xenografts were scored for GAP-43-labeled axonal profiles by digital image analysis. Data represent the means (−SEM) of 2 vehicle-treated and 2 chondroitinase-treated grafts assessed at the specified distances into the graft (proximal to distal).
In the following experiments, the hypothesis that chondroitinase treatment improves nerve regeneration through acellular human nerve grafts in a rat xenograft model was tested. Subunits (individual fascicles) taken from human nerves were treated en bloc with vehicle or chondroitinase ABC. Ten-mm interpositional nerve grafts were joined to the rat host sciatic nerve by epineurial neurorrhaphy reinforced with fibrin glue. Each of 2 host rats received bilateral grafts, one vehicle-treated and one chondroitinase-treated graft. Regeneration was initially examined after 8 days. Axonal growth was assessed at specified spatial intervals within the graft by scoring GAP-43-immunopositive profiles in transverse sections.

[2] = system: CSPG; experiment: CSPG-neoepitope immunolabeling of injured sciatic nerve after in vivo injection; set-up: species or system rat; conditions: single injection 1 U in 2 μl, 2 mm distal to injury; 4 days (transection) or 2 days (crush)
Procedure: Surgical procedures for nerve transection and nerve crush experiments. All surgical procedures were performed according to Institutional Animal Care and Use Committee (IACUC) approved protocols. Young adult SPRAGUE DAWLEY rats (HARLAN Indianapolis, Ind.) were deeply anesthetized with xylazine (15 mg/kg, i.m.) followed by ketamine-HCl (110 mg/kg, i.p.). Six animals received bilateral nerve crush injuries. Sciatic nerves were exposed and then crushed with firm pressure for thirty seconds with a DUMONT #5 forceps at a site 4 mm distal to the tendon of the internal obdurator. The crush site was marked with an epineurial suture. In a separate set of experiments, eight rats received bilateral sciatic nerve transection injuries using serrated scissors. The proximal and distal stumps were […] by epineurial neurorrhaphy using 9-0 ETHILON sutures. Fibrin glue (fibrinogen and thrombin) was then applied to stabilize the union. In both injury models, the right sciatic nerves were injected 2-mm distal to the injury with chondroitinase ABC (1 U in 2 μl) (high-purity, protease-free; SIGMA CHEMICAL CO., St. Louis, Miss.). Left sciatic nerves (with the same injury as the right side) were injected with vehicle alone (0.1% bovine serum albumin in PBS). […]
Immunocytochemistry. Axonal regeneration was assessed by GAP-43 immunofluorescence and digital image analysis. […]

chondroitinase ABC
average number of axons (GAP-43-immunopositive profiles) entering grafts vs control grafts [1]: more than three-fold greater | CSPG degradation in extracellular matrix around injection site [2]: substantially, if not completely, degraded CSPG
